Test results as given in patent US20160128336A1, “MICROBIAL AGRICULTURE” (DSM IP ASSETS B.V., priority 2013, published 2016).

Tested on: Colletotrichum gloeosporioides (CBS272.51)
Assay: Agar plug bio-assay on YME agar, fungal colony radius towards Streptomyces or natamycin plug
Type: cell-based
Settings: Table 7; 10 ppm natamycin in agar plug (5% w/w methanol), 7 days at 28° C.
Protocol: Three fungal plant pathogens were tested against the selected S. natalensis strains: Fusarium oxysporum f.sp. lycopersici (CBS414.90), Colletotrichum gloeosporioides (CBS272.51) and Alternaria alternata (CBS103.33). Fusarium oxysporum f.sp. lycopersici is a soil borne fungus causing yield loss in e.g. tomato crops (Fusarium Wilt). Colletotrichum gloeosporioides causes e.g. anthracnose, a plant disease recognizable by dark brown lesions on leaves and fruits. Alternaria alternata is a worldwide occurring saprophyte that can cause phytopathogenic reactions in economically important host plants. The selected S. natalensis strains were tested against these fungal plant pathogens as described below.
Frozen vials (glycerol stocks) or freeze dried tubes from the selected S. natalensis strains were transferred to 100 ml baffled Erlenmeyer flasks containing 20 ml of Yeast Malt Extract broth (YME). […]
The bio-assay was done as follows. […] After 7 days the radius of the fungal colony was measured in the direction of the opposite agar plug (Streptomyces sample). […] The inhibition zone (in percentage) was calculated by using the following formula: 100% * (r0-r1)/r0, wherein r0is the radius (in mm, corrected for the plug radius) of the fungal colony from the control sample and wherein r1 is the radius (in mm, corrected for the plug radius) of the fungal colony from the Streptomyces inhibited sample. […]

With `C[C@@H]1C/C=C/C=C/C=C/C=C/[C@H](O[C@@H]2O[C@H](C)[C@@H](O)[C@H](N)[C@@H]2O)C[C@@H]2O[C@](O)(C[C@@H](O)C[C@H]3O[C@@H]3/C=C/C(=O)O1)C[C@H](O)[C@H]2C(=O)O` [Natamycin, natamycin] the “Average inhibition zone (in %)” value was “not as high”.
